From patent US12540136B2, “Pyrrolopyridine derivative and use thereof” (ST PHARM CO., LTD., priority 2020, dated 2026)
Where two headings read alike, the source gives them in different places.

How the values were obtained:
Type in all cases: cell-based
[1] = Cytotoxicity, MTS dye reduction assay; settings: human; MT-4 cells, MTS dye reduction, 6 days incubation; read-out: CC50, HIV-1(NL4-3) in MT-4 Cells
Method: (§1) In order to determine the HIV-1 (Wild type) inhibitory effect of compounds of the present invention, a test was conducted as follows. The host cell was MT-4 cells and the virus strain was NL4-3 strain of HIV-1. The virus and cells were mixed in the presence of the compounds of the present invention, followed by incubation for 6 days. The antiviral effect was measured as a percentage decrease in viral cytopathic effect (CPE), and the cytotoxicity of the compounds was evaluated by MTS (CellTiter® 96 Reagent, Promega, Madison WI) dye reduction assay. 1.

HIV-1 (NL4-3) = assay: HIV-1 (wild type) inhibitory effect, decrease in viral cytopathic effect (CPE) in MT-4 cells; settings: Human immunodeficiency virus 1, NL43, MT4, 144 h; NL4-3 strain, MT-4 host cells, 6 days incubation, CPE reduction
Method: as §1

MT-4 cells = assay: Cytotoxicity, MTS dye reduction assay
Method: as §1

| Structure (SMILES) | CC50 at 6 days [1] [µM] | EC50 (HIV-1 (NL4-3)) [µM] | CC50 (MT-4 cells) [µM] | CC50 (MT-4 cells; MT-4 cells, MTS dye reduction, 6 days incubation, read-out: CC50, HIV-1(NL4-3) in MT-4 Cells) [µM] |
| --- | --- | --- | --- | --- |
| Cc1nc2c(c(C)c(C)n2Cc2cnn(C)c2)c(-c2ccc(Cl)cc2)c1[C@@H](C#N)OC(C)(C)C [Example 6, (S)-2-(tert-butoxy)-2-(4-(4-chlorophenyl)-2,3,6-trimethyl-1-((1-methyl-1H-pyrazol-4-yl)methyl)-1H-pyrrolo[2,3-b]pyridin-5-yl)acetonitrile] | > 10 | > 10 | – | – |
| Cc1nc2c(c(C)c(C)n2Cc2cnn(C)c2)c(-c2ccc(Cl)cc2)c1[C@H](OC(C)(C)C)c1nnn[nH]1 [Example 7, (S)-5-(tert-butoxy(1H-tetrazol-5-yl)methyl)-4-(4-chlorophenyl)-2,3,6-trimethyl-1-((1-methyl-1H-pyrazol-4-yl)methyl)-1H-pyrrolo[2,3-b]pyridine] | > 10 | 0.361 | – | – |
| CNC(=O)[C@@H](OC(C)(C)C)c1c(C)nc2c(c(C)c(C)n2Cc2cnn(C)c2)c1-c1ccc(Cl)cc1 [Example 8, (S)-2-(tert-butoxy)-2-(4-(4-chlorophenyl)-2,3,6-trimethyl-1-((1-methyl-1H-pyrazol-4-yl)methyl)-1H-pyrrolo[2,3-b]pyridin-5-yl)-N-methylacetamide] | 4.98 | – | – | – |
| Cc1nc2c(c(C)c(C)n2Cc2cnn(C)c2)c(-c2ccc(Cl)cc2)c1[C@H](OC(C)(C)C)C(N)=O [Example 5, (S)-2-(tert-butoxy)-2-(4-(4-chlorophenyl)-2,3,6-trimethyl-1-((1-methyl-1H-pyrazol-4-yl)methyl)-1H-pyrrolo[2,3-b]pyridin-5-yl)acetamide] | > 10 | > 10 | – | – |
| Cc1nc2c(c(C)c(C)n2Cc2cnn(C)c2)c(-c2ccc(Cl)cc2)c1[C@H](OC(C)(C)C)C(=O)NO [Example 11, (S)-2-(tert-butoxy)-2-(4-(4-chlorophenyl)-2,3,6-trimethyl-1-((1-methyl-1H-pyrazol-4-yl)methyl)-1H-pyrrolo[2,3-b]pyridin-5-yl)-N-hydroxyacetamide] | 3.16 | – | – | – |
| Cc1nc2c(c(C)c(C)n2Cc2cnn(C)c2)c(-c2ccc(Cl)cc2)c1[C@H](OC(C)(C)C)C(=O)OCc1oc(=O)oc1C [Example 4, (5-Methyl-2-oxo-1,3-dioxol-4-yl)methyl (S)-2-(tert-butoxy)-2-(4-(4-chlorophenyl)-2,3,6-trimethyl-1-((1-methyl-1H-pyrazol-4-yl)methyl)-1H-pyrrolo[2,3-b]pyridin-5-yl)acetate] | > 10 | 0.00527 | – | – |
| CCCCCCCCCCCCCOC(=O)[C@@H](OC(C)(C)C)c1c(C)nc2c(c(C)c(C)n2Cc2cnn(C)c2)c1-c1ccc(Cl)cc1 [Example 1, Tridecyl (S)-2-(tert-butoxy)-2-(4-(4-chlorophenyl)-2,3,6-trimethyl-1-((1-methyl-1H-pyrazol-4-yl)methyl)-1H-pyrrolo[2,3-b]pyridin-5-yl)acetate] | > 10 | > 10 | – | – |
| Cc1nc([C@@H](OC(C)(C)C)c2c(C)nc3c(c(C)c(C)n3Cc3cnn(C)c3)c2-c2ccc(Cl)cc2)no1 [Example 13, (S)-3-(tert-butoxy (4-(4-chlorophenyl)-2,3,6-trimethyl-1-((1-methyl-1-1H-pyrazol-4-yl)methyl)-1H-pyrrolo[2,3-b]pyridin-5-yl)methyl)-5-methyl-1,2,4-oxadiazole] | – | – | > 10 | – |
| Cc1nc2c(c(C)c(C)n2Cc2cnn(C)c2)c(-c2ccc(Cl)cc2)c1[C@H](OC(C)(C)C)C(=O)Nc1nn[nH]n1 [Example 14, (S)-2-(tert-butoxy)-2-(4-(4-chlorophenyl)-2,3,6-trimethyl-1-((1-methyl-1H-pyrazol-4-yl)methyl)-1H-pyrrolo[2,3-b]pyridin-5-yl)-N-(2H-tetrazol-5-yl)acetamide] | > 10 | > 10 | – | – |
| CON(C)C(=O)[C@@H](OC(C)(C)C)c1c(C)nc2c(c(C)c(C)n2Cc2cnn(C)c2)c1-c1ccc(Cl)cc1 [Example 10, (S)-2-(tert-butoxy)-2-(4-(4-chlorophenyl)-2,3,6-trimethyl-1-((1-methyl-1H-pyrazol-4-yl)methyl)-1H-pyrrolo[2,3-b]pyridin-5-yl)-N-methoxy-N-methylacetamide] | > 10 | > 10 | – | – |
| CONC(=O)[C@@H](OC(C)(C)C)c1c(C)nc2c(c(C)c(C)n2Cc2cnn(C)c2)c1-c1ccc(Cl)cc1 [Example 9, (S)-2-(tert-butoxy)-2-(4-(4-chlorophenyl)-2,3,6-trimethyl-1-((1-methyl-1H-pyrazol-4-yl)methyl)-1H-pyrrolo[2,3-b]pyridin-5-yl)-N-methoxyacetamide] | 8.89 | – | – | – |
| COCCn1c(C)c(C)c2c(-c3ccc(Cl)cc3)c([C@H](OC(C)(C)C)C(=O)OCc3oc(=O)oc3C)c(C)nc21 [Example 3, (5-Methyl-2-oxo-1,3-dioxol-4-yl)methyl (S)-2-(tert-butoxy)-2-(4-(4-chlorophenyl)-1-(2-methoxyethyl)-2,3,6-trimethyl-1H-pyrrolo[2,3-b]pyridin-5-yl)acetate] | > 10 | 0.0227 | – | – |
| COC(=O)OCOC(=O)[C@@H](OC(C)(C)C)c1c(C)nc2c(c(C)c(C)n2Cc2cnn(C)c2)c1-c1ccc(Cl)cc1 [Example 15, ((Methoxycarbonyl)oxy)methyl (S)-2-(tert-butoxy)-2-(4-(4-chlorophenyl)-2,3,6-trimethyl-1-((1-methyl-1H-pyrazol-4-yl)methyl)-1H-pyrrolo[2,3-b]pyridin-5-yl)acetate] | > 10 | 0.0316 | – | – |
| Cc1nc2c(c(C)c(C)n2CC2CCO2)c(-c2ccc(Cl)cc2)c1[C@H](OC(C)(C)C)C(=O)OCc1oc(=O)oc1C (stereo partly drawn) [Example 2, (5-Methyl-2-oxo-1,3-dioxol-4-yl)methyl (2S)-2-(tert-butoxy)-2-(4-(4-chlorophenyl)-2,3,6-trimethyl-1-(oxetan-2-ylmethyl)-1H-pyrrolo[2,3-b]pyridin-5-yl)acetate] | > 10 | 0.12 | – | – |
| COCCOCCOC(=O)[C@@H](OC(C)(C)C)c1c(C)nc2c(c(C)c(C)n2Cc2cnn(C)c2)c1-c1ccc(Cl)cc1 [Example 16, 2-(2-Methoxyethoxy)ethyl (S)-2-(tert-butoxy)-2-(4-(4-chlorophenyl)-2,3,6-trimethyl-1-((1-methyl-1H-pyrazol-4-yl)methyl)-1H-pyrrolo[2,3-b]pyridin-5-yl)acetate] | > 10 | > 10 | – | – |
| Cc1nc2c(c(C)c(C)n2Cc2cnn(C)c2)c(-c2ccc(Cl)cc2)c1[C@H](OC(C)(C)C)/C(N)=N/O [Example 12, (S,Z)-2-(tert-butoxy)-2-(4-(4-chlorophenyl)-2,3,6-trimethyl-1-((1-methyl-1H-pyrazol-4-yl)methyl)-1H-pyrrole[2,3-b]pyridin-5-yl)-N′-hydroxyacetimidamide] | – | – | – | > 10 |
